Results published in patent US20250171459A1, “2-METHYL-4',5'-DIHYDROSPIRO[PIPERIDINE-4,7'-THIENO[2,3-C]PYRAN] DERIVATIVES AS INHIBITORS OF APOL1 AND METHODS OF USING SAME” (Vertex Pharmaceuticals Incorporated, priority 2022, published 2025).

Target: T1, APOL1 (Homo sapiens, UniProt O14791)
T1 sequence (O14791 1-398 S342G/I384M): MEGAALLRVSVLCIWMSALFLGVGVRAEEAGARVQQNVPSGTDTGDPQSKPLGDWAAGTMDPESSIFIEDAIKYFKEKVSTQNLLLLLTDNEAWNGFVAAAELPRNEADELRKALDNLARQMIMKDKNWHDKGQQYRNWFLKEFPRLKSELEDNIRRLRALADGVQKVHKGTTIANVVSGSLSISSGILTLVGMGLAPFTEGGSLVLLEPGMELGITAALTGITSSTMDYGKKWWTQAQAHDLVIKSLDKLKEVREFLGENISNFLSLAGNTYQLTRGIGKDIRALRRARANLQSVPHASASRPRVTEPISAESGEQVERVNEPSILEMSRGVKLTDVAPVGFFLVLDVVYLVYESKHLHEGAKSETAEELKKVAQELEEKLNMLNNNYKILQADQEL
Test: MultiTox-Fluor Multiplex Cytotoxicity Assay in tet-inducible APOL1 T-REx-HEK293 cells (cell rescue, ratio of dead to live cells)
Format: cell-based
Details: tet-inducible transgenic APOL1 T-REx-HEK293 cell lines, 50 ng/mL tet, 24 hours; read-out: IP50 (i.e., IC50 for cell proliferation)
Source text: The MultiTox-Fluor Multiplex Cytotoxicity Assay is a single-reagent-addition, homogeneous, fluorescence assay that measures the number of live and dead cells simultaneously in culture wells. The assay measures cell viability and cytotoxicity by detecting two distinct protease activities. […] The substrate enters intact cells, where it is cleaved to generate a fluorescent signal proportional to the number of living cells. […] A ratio of dead to live cells is used to normalize data.
The MultiTox reagent was added to each well and placed back in the incubator for an additional 30 minutes. The plate was read on the EnVision plate reader. A ratio of dead to live cells was used to normalize, and data was imported, analyzed, and fit using Genedata Screener (Basel, Switzerland) software. Data was normalized using percent of control, no tet (100% viability), and 50 ng/mL tet treated (0% viability), and fit using Smart Fit. The reagents, methods, and complete protocol for the MultiTox assay are described below.
Cells were washed with DPBS and then trypsinized to dissociate from the flask. Media was used to quench the trypsin, cells were then pelleted at 200 g and resuspended in fresh cell assay media (DMEM, 2% Tet-free FBS, 2 mM L-glutamine, 100 Units/mL penicillin-streptomycin). […] The plates were then incubated at room temperature for one hour.
Tetracycline is needed to induce APOL1 expression. 1 mg/mL tet stock in water was diluted to 250 ng/mL (5×) in cell assay media.
Compounds were dispensed at 200 nL in DMSO. The final top concentration was 10 μM with a 10 point 3-fold dilution in duplicate in the MultiTox assay.
20 μL was transferred from the 5× tet plate to the ARP and mixed, then 5 μL of 5× tet and the compounds were transferred to the cell plate and mixed using the Bravo. The cell plate was placed in the humidified 37° C. 5% CO2 incubator for 24 hours.
The MultiTox-Fluor Multiplex Cytotoxicity Assay was performed in accordance with the manufacturer's protocol. After cells were incubated with tet and compound for 24 hours, 25 μL of 1× MultiTox reagent was added to each well using the Multidrop dispenser; the plates were placed on a plate shaker (600 rpm) for 2 minutes, then centrifuged briefly and placed back in the 37° C. incubator for 30 minutes. The cell viability (excitation: 400 nm, emission: 486 nm) and cytotoxicity (excitation: 485 nm, emission: 535 nm) were read using the EnVision plate reader. A ratio of dead (cytotoxicity) to live (viability) cells was reported. Data was exported and analyzed in Genedata. Data was normalized using percent of control, no tet (100% viability), and 50 ng/mL tet treated (0% viability), and fit using Smart Fit settings in Genedata.

Compound	IC50 [nM]
C[C@H]1C[C@@]2(CCN1Cc1cnn(C)c1)OCC(O)c1cc(Cl)sc12 (mixture of isomers) [Compound 818]	< 100
C[C@H]1C[C@@]2(CCN1Cc1cnc(N[C@H]3CC[C@H](O)CC3)nc1)OCC(O)c1cc(Cl)sc12 (mixture of isomers) [Compound 825, (2′S, 7R)-2-chloro-1′-[[2-[(4-hydroxycyclohexyl)amino]pyrimidin-5-yl]methyl]-2′-methyl-spiro[4,5-dihydrothieno[2,3-c]pyran-7,4′-piperidine]-4-ol]	< 100
Cc1cn2nc(CN3CC[C@]4(C[C@@H]3C)OCC(O)c3cc(Cl)sc34)cc2c(NC2CC2)n1 (mixture of isomers) [Compound 826, 2-chloro-1′-[[4-(cyclopropylamino)-6-methyl-pyrazolo[1,5-a]pyrazin-2-yl]methyl]-2′-methyl-spiro[4,5-dihydrothieno[2,3-c]pyran-7,4′-piperidine]-4-ol]	< 100
CCc1cc2c(s1)CCO[C@@]21CCN(C2CC[C@@H](NC(=O)OC(C)(C)C)C2)[C@@H](C)C1 (single isomer, unassigned) [Compound 296]	100 to 500
Cc1cc2c(s1)CCO[C@@]21CCN(C2COCC2O)[C@@H](C)C1 (single isomer, unassigned) [Compound 499]	< 100
Cc1cc2c(s1)CCO[C@@]21CCN(C2COCC2O)[C@@H](C)C1 (single isomer, unassigned) [Compound 500]	< 100
CC1Cc2sc(Cl)cc2C2(CCN(Cc3cnn(C)c3)[C@@H](C)C2)O1 (single isomer, unassigned) [Compound 528, (2′S)-2-chloro-2′,6-dimethyl-1′-[(1-methylpyrazol-4-yl)methyl]spiro[6,7-dihydrothieno[3,2-c]pyran-4,4′-piperidine]]	100 to 500
CC1Cc2sc(Cl)cc2C2(CCN(Cc3cnn(C)c3)[C@@H](C)C2)O1 (single isomer, unassigned) [Compound 529, (2′S)-2-chloro-2′,6-dimethyl-1′-[(1-methylpyrazol-4-yl)methyl]spiro[6,7-dihydrothieno[3,2-c]pyran-4,4′-piperidine]]	< 100
C[C@H]1C[C@@]2(CCN1Cc1cnn(CCS(C)(=O)=O)c1)OCC(O)c1cc(Cl)sc12 (single isomer, unassigned) [Compound 768]	< 100
C[C@H]1C[C@@]2(CCN1Cc1cnn(CCS(C)(=O)=O)c1)OCC(O)c1cc(Cl)sc12 (single isomer, unassigned) [Compound 769]	< 100
C[C@H]1C[C@@]2(CCN1Cc1cnn(C)c1)OCC(O)c1cc(Cl)sc12 (single isomer, unassigned) [Compound 819]	< 100
C[C@H]1C[C@@]2(CCN1Cc1cnn(C)c1)OCC(O)c1cc(Cl)sc12 (single isomer, unassigned) [Compound 820]	< 100
COC1CO[C@@]2(CCN(Cc3cnn(CCS(C)(=O)=O)c3)[C@@H](C)C2)c2sc(Cl)cc21 (single isomer, unassigned) [Compound 842, (2′S, 7R)-2-chloro-4-methoxy-2′-methyl-1′-[[1-(2-methylsulfonylethyl)pyrazol-4-yl]methyl]spiro[4,5-dihydrothieno[2,3-c]pyran-7,4′-piperidine]]	< 100
COC1CO[C@@]2(CCN(Cc3cnn(CCS(C)(=O)=O)c3)[C@@H](C)C2)c2sc(Cl)cc21 (single isomer, unassigned) [Compound 843, (2′S, 7R)-2-chloro-4-methoxy-2′-methyl-1′-[[1-(2-methylsulfonylethyl)pyrazol-4-yl]methyl]spiro[4,5-dihydrothieno[2,3-c]pyran-7,4′-piperidine]]	< 100
Cc1c(Cl)sc2c1C(O)CO[C@@]21CCN(Cc2cnn(CCS(C)(=O)=O)c2)[C@@H](C)C1 (single isomer, unassigned) [Compound 859, (2′S, 7R)-2-chloro-2′,3-dimethyl-1′-[[1-(2-methylsulfonylethyl)pyrazol-4-yl]methyl]spiro[4,5-dihydrothieno[2,3-c]pyran-7,4′-piperidine]-4-ol]	< 100
C[C@H]1C[C@@]2(CCN1Cc1cnn(CCS(C)(=O)=O)c1)OCC(O)c1cc(C(F)(F)F)sc12 (single isomer, unassigned) [Compound 881]	< 100
C[C@H]1C[C@@]2(CCN1Cc1cnn(CCS(C)(=O)=O)c1)OCC(O)c1cc(C(F)(F)F)sc12 (single isomer, unassigned) [Compound 882]	< 100
C[C@H]1C[C@@]2(CCN1Cc1cnn(CCS(C)(=O)=O)c1)OCC(O)c1cc(C(F)(F)C(F)F)sc12 (single isomer, unassigned) [Compound 1013]	< 100
C[C@H]1C[C@@]2(CCN1Cc1cnn(CCS(C)(=O)=O)c1)OCC(O)c1cc(C(F)(F)C(F)F)sc12 (single isomer, unassigned) [Compound 1014, (2′S, 7R)-2′-methyl-1′-[[1-(2-methylsulfonylethyl)pyrazol-4-yl]methyl]-2-(1,1,2,2-tetrafluoroethyl)spiro[4,5-dihydrothieno[2,3-c]pyran-7,4′-piperidine]-4-ol]	< 100
CCc1cc2c(s1)C(C)COC21CCN(Cc2cnn(C)c2)CC1 (single isomer, unassigned) [Compound 1170, 2-ethyl-7-methyl-1′-[(1-methylpyrazol-4-yl)methyl]spiro[6,7-dihydrothieno[3,2-c]pyran-4,4′-piperidine]]	100 to 500
CCc1cc2c(s1)C(C)COC21CCN(Cc2cnn(C)c2)CC1 (single isomer, unassigned) [Compound 1171, 2-ethyl-7-methyl-1′-[(1-methylpyrazol-4-yl)methyl]spiro[6,7-dihydrothieno[3,2-c]pyran-4,4′-piperidine]]	500 to 1000
CCc1cc2c(s1)CCO[C@@]21CCN(C[C@H]2C[C@@H](NC(=O)C3CCc4ccccc4O3)C2)[C@H](C)C1 (stereo in doubt) [Compound 332]	100 to 500
C[C@@H]1C[C@]2(CCN1Cc1cn(CC(O)C(C)(C)O)nn1)OCCc1cc(Cl)sc12 (stereo in doubt) [Compound 626, 1-(4-(((2R,4S)-2′-chloro-2-methyl-4′,5′-dihydrospiro[piperidine-4,7′-thieno[2,3-c]pyran]-1-yl)methyl)-1H-1,2,3-triazol-1-yl)-3-methylbutane-2,3-diol]	< 100
C[C@@H]1C[C@]2(CCN1Cc1cnn(C)c1)OCCc1cc(Cl)sc12 (stereo in doubt) [Compound 630, (2R,4S)-2′-chloro-2-methyl-1-((1-methyl-1H-pyrazol-4-yl)methyl)-4′,5′-dihydrospiro[piperidine-4,7′-thieno[2,3-c]pyran]]	< 100
CCN1CC[C@]2(C[C@@H]1C)OCC(O)c1cc(Cl)sc12 (stereo in doubt) [Compound 821, (2′S,4S,7R)-2-chloro-1′-ethyl-2′-methyl-spiro[4,5-dihydrothieno[2,3-c]pyran-7,4′-piperidine]-4-ol]	100 to 500
C[C@H]1C[C@@]2(CCN1Cc1cnn(CC(O)C(C)(C)O)c1)OCC(O)(C(F)F)c1cc(Cl)sc12 (stereo in doubt) [Compound 829, 1-[4-[[(2′S,4R,7R)-2-chloro-4-(difluoromethyl)-4-hydroxy-2′-methyl-spiro[5H-thieno[2,3-c]pyran-7,4′-piperidine]-1′-yl]methyl]pyrazol-1-yl]-3-methyl-butane-2,3-diol]	< 100
CCc1cc2c(s1)CCO[C@@]21CCN(Cc2cn(C3CN(S(=O)(=O)CCO)C3)nn2)[C@@H](C)C1 [Compound 1, 2-[3-[4-[[(2′S,4R)-2-ethyl-2′-methyl-spiro[6,7-dihydrothieno[3,2-c]pyran-4,4′-piperidine]-1′-yl]methyl]triazol-1-yl]azetidin-1-yl]sulfonylethanol]	< 100
CCc1cc2c(s1)CCO[C@@]21CCN(Cc2cn(C3CN(S(=O)(=O)c4c[nH]cn4)C3)nn2)[C@@H](C)C1 [Compound 2]	< 100
CCc1cc2c(s1)CCO[C@@]21CCN(Cc2cn(C3CN(S(=O)(=O)c4nccn4C)C3)nn2)[C@@H](C)C1 [Compound 3]	< 100
